Measured values from article PMC9656482, “In Vitro and In Vivo Biological Activity of Ruthenium 1,10-Phenanthroline-5,6-dione Arene Complexes” (International Journal of Molecular Sciences, 2022).

Columns and labels:
A2780 cells = experiment: Senescence assay (beta-galactosidase fluorescence); type: cell-based, human; conditions: A2780, 48 h, IC50 of JHOR11, relative to DMSO
Method: The senescence of A2780 cells after 48 h incubation with IC50 of JHOR11 was also analyzed to add more insights into the mechanism of action of the complex. Premature cellular senescence is an irreversible state of cell cycle arrest that occurs in response to intrinsic and extrinsic insults to the cell that induce DNA damage, oxidative stress, or nutrient depletion. The percentage of senescent cells was measured using the senescence assay kit (Abcam) that allows the quantification of the senescence-associated expression of beta-galactosidase activity by flow cytometry. […] [36].
The cell senescence analysis was performed using the Senescence assay kit (beta galactosidade fluorescence, Abcam, Cambridge, UK) according to the manufacturer’s instruction with few modifications. Briefly, A2780 cells were seeded in 24 well-plates to a final cell density of 4 × 10^5 cells/well. After 24 h incubation, to assure cell adhesion to the wells, the medium was replaced by fresh media supplemented with 0.1% (v/v) DMSO, for vector control, 3.5 µM cisplatin, 0.1 µM Doxorubicin, or IC50 JHOR11. […] Pelleted cells were washed with wash buffer, resuspended in the same buffer and the percentage of fluorescent cells in each sample was immediately measured in an Attune focusing flow cytometer and respective software (Thermo Fisher Scientific).

[1] = test system: HCT116 colorectal carcinoma cell line; experiment: MTS antiproliferative assay, HCT116; type: cell-based, human
Method: The cytotoxic potential of the complexes was evaluated by assessing their viability using the 3-(4,5-dimethylthiazol-2-yl)-5-(3-carboxymethoxyphenyl)-2-(4-sulfophenyl)-2H tetrazolium, inner salt (MTS) colorimetric assay in three tumor cell lines—ovarian carcinoma, A2780, colorectal carcinoma, HCT116, and colorectal carcinoma resistant to doxorubicin, HCT116-Dox and in normal human primary dermal fibroblasts (Figure 1 and Figure S7).
Normal dermal human fibroblasts, colorectal carcinoma cell line HCT116 and ovarian carcinoma cell line A2780 were acquired from ATCC (Manassas, VA, USA). […] Fibroblasts and HCT116 cells were cultured in Dulbecco’s modified Eagle medium (DMEM, Thermo Fisher Scientific) and A2780 cell line was cultured on Roswell Park Memorial institute 1640 (RPMI-1640, Thermo Fisher Scientific). Both media were supplemented with 10% (v/v) fetal bovine serum (FBS, Thermo Fisher Scientific) and a mixture of 100 U/mL penicillin and 100 mg/mL streptomycin. The supplemented media are referred to from this point on as DMEM or RPMI for simplicity. […] All experiments underwent at 37 °C, 5% (v/v) CO2 and 99% (v/v) humidity in the dark.
Cells were seeded in a 96-well plate in a density of 7500 cells/well, and after 24 h was submitted to a concentration range between 0.1–50 µM of complexes JHOR10 and JHOR11. DMSO with a 0.1% (v/v) concentration was used as vector control and cisplatin was used as positive control in all replicates. After 48 h incubation, cellular viability was inferred with the Cell Titer 96® Aqueous One solution cell proliferation assay (Promega, Madison, WI, USA) according to the manufacturer’s instructions and procedures previously described [18, 40]. The absorbance of the produced Formazan was quantified with a Tecan microplate reader, Infinite M200 (Tecan, Mannedorf, Switzerland) and the analysis of the dose–response curves to determine the relative IC50 was performed with GraphPad Prism 8.2.1 software (GraphPad Software, La Jolla, CA, USA).

[2] = test system: HCT116 cells injected into zebrafish embryos; experiment: Zebrafish embryo xenograft assay; type: in vivo; conditions: 80 μM in embryo water from 1 dpi, read at 4 dpi
Method: HCT116 human colorectal cancer cell line was incubated in standard conditions (37 °C and 5% CO2) until a confluence of 80% was reached. Afterwards, the cells were concentrated and labelled with DiI and injected into the circulation (Duct of Cuvier) of 48 hpf zebrafish embryos to assay the proliferation in vivo of the cells exposed to JHOR11 (80 μM). JHOR11 was dissolved in the embryo water at 1 dpi (days post-injection) for the embryos to recover from the injection and the establishment of the cancer cells in the caudal hematopoietic tissue (CHT), and was maintained until the end of the experiment at 4 dpi. Imaging of the embryos was performed at 1 dpi and 4 dpi to quantify the fluorescence and area of the cells in the tail of the embryos, where cells invade and grow, and measure their proliferation over time to assess the inhibitory effect of JHOR11 over the cells. […]
The images were obtained with an AZ-100 Nikon fluorescence stereomicroscope at two different times ([…]) allowing in vivo monitoring of the proliferating HCT116 cells labelled within the zebrafish embryo. The analysis of the cell progression was carried out using Quantifish Software. This software analyzes each image by measuring its fluorescence above a manually set threshold that produces the integrated intensity of each image as the output. […]

Cc1ccc(C(C)C)cc1.F[P-](F)(F)(F)(F)F.O=C1C(=O)c2cccnc2-c2ncccc21.[Cl][Ru+] [JHOR11]
percentage of senescent cells (A2780 cells): increased percentage of senescent cells
IC50 ([1]; 48 h incubation, MTS, read-out: Relative IC50, HCT116): 5.5 ± 0.3 µM
selective index in HCT116 ([1]; relative to fibroblasts): 8.1
decrease of proliferation of HCT116 cells compared to control [2]: 45%
